{"source": "patent US20260209263A1", "about": "“UNNATURAL SUGAR, AND SYNTHESIS METHOD THEREFOR AND USE THEREOF” (HEFEI LINXCELL BIOTECHNOLOGIES CO., LTD, priority 2022, published 2026)", "key": {"[1]": {"tested_on": "HeLa cells", "test": "Metabolic glycan labeling in living HeLa cells, Cy5 in-gel fluorescence", "format": "cell-based", "conditions": "for labeling efficiency compared with 1,6-Pr2GalNAz or 1,6-Pr2ManNAz: 200 μM; for labeling efficiency compared with GalNAz or ManNAz: 200 μM of 1,6-bis-acylated sugar vs 2 mM of sugar without protecting groups", "experimental": "In order to verify the metabolic labeling effect of the above-mentioned 1,6-bis-acylated unnatural sugars in living cells, HeLa cells were metabolically labeled with the above-mentioned different compounds. The specific steps are as follows:\n200 μM of 1,6-bis-acylated unnatural sugar and 2 mM of sugar without protecting groups were added to a culture medium of HeLa cells for culture, and then bioorthogonal reaction was carried out with Cy5 fluorescently labeled substances, and in-gel fluorescence detection was performed on the differently treated HeLa cells. The detection results are shown in FIGS. 2A-2C (CBB in FIGS. 3A-3D represents Coomassie Brilliant Blue staining to show the loading amount control)."}, "[2]": {"tested_on": "B6D2F1/J mice", "test": "Metabolic labeling in vivo in mice, in-gel fluorescence of organ homogenates", "conditions": "intraperitoneal, 500 mg/kg every day for 3 or 7 consecutive days; heart, lung, spleen", "experimental": "In the in vivo mouse experiment, B6D2F1/J mice were intraperitoneally injected with 1,6-Pr2GalNAz or 1,6-Pr2ManNAz (both at a concentration of 500 mg/kg) every day for 3 or 7 consecutive days. The mice were euthanized on the 4th or 8th day, and different organs were selected for homogenization. The azide-modified glycoproteins were click-labeled and separated by SDS-PAGE."}, "[3]": {"tested_on": "MCF-7 (MCF7-T2A-GFP) cells", "test": "Metabolic glycan labeling in MCF-7 cells expressing GFP", "format": "cell-based", "from_the_text": "(§1) The above data well illustrate that 1,6-bis-acylated azidosugars can be metabolically labeled at much lower concentrations than unprotected azidosugars."}, "[4]": {"tested_on": "MCF7-AGX2F383G-T2A-GFP cells", "test": "Metabolic glycan labeling in MCF-7 cells overexpressing mutant enzyme AGX2F383G", "format": "cell-based", "from_the_text": "as §1"}}}
{"smiles": "CC(=O)OCC1OC(OC(C)=O)C(NC(=O)CN=[N+]=[N-])C(O)C1O", "note": "(centres unmarked) [1,6-Ac2GalNAz]", "values": [{"measurement": "labeling efficiency compared with 1,6-Pr2GalNAz or 1,6-Pr2ManNAz", "setting": "[1]", "result": "much lower"}]}
{"smiles": "CCCC(=O)OCC1OC(OC(=O)CCC)C(NC(=O)CN=[N+]=[N-])C(O)C1O", "note": "(centres unmarked) [1,6-Bu2GalNAz]", "values": [{"measurement": "labeling efficiency compared with 1,6-Pr2GalNAz or 1,6-Pr2ManNAz", "setting": "[1]", "result": "comparable"}]}
{"smiles": "CCC(=O)OC[C@H]1OC(OC(=O)CC)[C@H](NC(=O)CN=[N+]=[N-])[C@@H](O)[C@H]1O", "note": "(some centres unmarked) [1,6-Pr2GalNAz]", "values": [{"measurement": "labeling efficiency compared with GalNAz or ManNAz", "setting": "[1]", "result": "close to or slightly stronger than 2 mM of sugar without protecting groups"}, {"measurement": "in vivo metabolic labeling of glycoproteins from organs", "setting": "[2]", "result": "glycoproteins from the heart, lung, and spleen could be well labeled"}]}
{"smiles": "CCC(=O)OCC1OC(OC(=O)CC)C(NC(=O)CN=[N+]=[N-])C(O)C1O", "note": "(centres unmarked) [1,6-Pr2ManNAz]", "values": [{"measurement": "labeling efficiency compared with GalNAz or ManNAz", "setting": "[1]", "result": "close to or slightly stronger than 2 mM of sugar without protecting groups"}, {"measurement": "in vivo metabolic labeling of glycoproteins from organs", "setting": "[2]", "result": "glycoproteins from the heart, lung, and spleen could be well labeled"}]}
{"smiles": "[N-]=[N+]=NCC(=O)N[C@H]1C(O)O[C@H](CO)[C@@H](O)[C@@H]1O", "note": "(some centres unmarked) [GlcNAz]", "values": [{"measurement": "metabolic labeling", "setting": "[3]", "result": "neither GlcNAz nor 1,6-bis-acylated GlcNAz treatment resulted in obvious labeling"}, {"measurement": "metabolic labeling", "setting": "[4]", "result": "produced obvious labeling"}]}
